{"source": "paper PMC7949145", "about": "(The Journal of Biological Chemistry, 2021)", "key": {"Mtr LpqY [1]": {"biological_target": "T1, Mtr LpqY (Mycolicibacterium thermoresistibile, UniProt G7CES0)", "T1 sequence (G7CES0 29-471)": "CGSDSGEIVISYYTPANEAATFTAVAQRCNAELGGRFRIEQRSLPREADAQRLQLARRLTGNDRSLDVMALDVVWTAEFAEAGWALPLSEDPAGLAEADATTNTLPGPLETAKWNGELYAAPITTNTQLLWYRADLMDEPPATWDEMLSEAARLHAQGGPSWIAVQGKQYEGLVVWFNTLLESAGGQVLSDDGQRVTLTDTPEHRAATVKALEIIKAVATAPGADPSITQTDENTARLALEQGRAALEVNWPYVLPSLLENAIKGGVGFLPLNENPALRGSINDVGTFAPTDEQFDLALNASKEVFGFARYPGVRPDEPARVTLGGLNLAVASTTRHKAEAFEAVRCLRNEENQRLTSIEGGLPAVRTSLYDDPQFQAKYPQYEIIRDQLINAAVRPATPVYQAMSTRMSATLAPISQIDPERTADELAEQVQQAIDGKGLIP", "test": "Thermal shift assay (SYPRO Orange) of potential ligands", "assay_type": "binding, Mycobacterium thermoresistible", "conditions": "ligand 10 mM; for ΔTm: Mtr LpqY 2.6 μM, shift relative to protein alone (Tm 66.0 °C), no unit in table, °C"}, "Mtr LpqY [2]": {"biological_target": "T1, Mtr LpqY", "test": "Microscale thermophoresis (MST), wild-type protein", "assay_type": "binding, Mycobacterium thermoresistible", "conditions": "for Kd: 21 °C, wild-type Mtr LpqY 500 nM, mean ± SEM, at least three experiments"}, "mycobacteria": {"test_system": "mycobacteria", "parameters": "method as in PMID 22978752", "conditions": "cited from earlier work"}, "Mtr LpqY [3]": {"biological_target": "T1, Mtr LpqY", "test": "Saturation transfer difference (STD) NMR", "assay_type": "binding, Mycobacterium thermoresistible", "conditions": "protein 25 μM, ligand 1 mM, PBS D2O pH 7.4, 288 K", "method": "However, despite numerous efforts, we were unable to obtain a crystal structure of Mtr LpqY in complex with 6-azido-trehalose. Therefore, to further our understanding into the mode of ligand binding, the binding epitope of 6-azido-trehalose with Mtr LpqY was determined in solution by saturation transfer difference (STD) NMR experiments, as described in the Methods section.\nAll the STD NMR experiments were performed in PBS D2O buffer, pH 7.4. […] STD NMR spectra were acquired on a Bruker Avance 500.13 MHz at 288 K. The on- and off-resonance spectra were acquired using a train of 50 ms Gaussian selective saturation pulses using a variable saturation time from 0.5 s to 5 s, and a relaxation delay (D1) of 4 s. The water signal was suppressed using the watergate technique ([41]), whereas the residual protein resonances were filtered using a T1ρ-filter of 40 ms. All the spectra were acquired with a spectral width of 8 kHz and 24K data points using 512 scans. The on-resonance spectra were acquired by saturating at 0.80 (aliphatic hydrogens) or 7.20 ppm (aromatic hydrogens), as average chemical shifts predicted from shiftX2 ([42]) for the aliphatic and aromatic residues present in the binding site of Mtr LpqY, whereas the off-resonance spectra were acquired by saturating at 40 ppm. […]"}}, "note": "Entries after “also recorded” stand apart in the source; their conditions may differ. Where two headings read alike, the source gives them in different places.", "data": [{"molecule": "[N-]=[N+]=N[C@H]1[C@@H](O[C@H]2O[C@H](CO)[C@@H](O)[C@H](O)[C@H]2O)O[C@H](CO)[C@@H](O)[C@@H]1O", "note": "[2-azido-2-deoxy-trehalose, 2-azido-2-deoxy-α,α′-trehalose]", "values": [{"measurement": "Recognition in the thermal shift screen (in words)", "setting": "Mtr LpqY [1]", "result": "only a minor shift"}, {"measurement": "ΔTm", "setting": "Mtr LpqY [1]", "result": "1.7 ± 0.1"}, {"measurement": "Kd", "setting": "Mtr LpqY [2]; read-out: Kd", "result": "1916 ± 7.7", "unit": "µM"}, {"measurement": "Import into the cytosol of mycobacteria", "setting": "mycobacteria", "result": "imported and found in the cytosol"}]}, {"molecule": "OC[C@H]1O[C@H](O[C@H]2O[C@H](CO)[C@@H](O)[C@H](O)[C@H]2O)[C@@H](O)[C@@H](O)[C@@H]1O", "note": "[Mannotrehalose, α-D-mannopyranosyl-(1→1)-α-D-glucopyranoside]", "values": [{"measurement": "ΔTm", "setting": "Mtr LpqY [1]", "result": "5.9 ± 0.3"}]}, {"molecule": "OC[C@H]1OC(O)[C@H](O)[C@@H](O)[C@@H]1O", "note": "(stereo partly shown) [glucose]", "values": [{"measurement": "Recognition in the thermal shift screen (in words)", "setting": "Mtr LpqY [1]", "result": "no influence on the ΔTm"}]}, {"molecule": "OC[C@H]1O[C@@H](O[C@H]2O[C@H](CO)[C@@H](O)[C@H](O)[C@H]2O)[C@H](O)[C@@H](O)[C@@H]1O", "note": "[α,β-trehalose]", "values": [{"measurement": "ΔTm", "setting": "Mtr LpqY [1]", "result": "3.7 ± 0.1"}]}, {"molecule": "[N-]=[N+]=N[C@@H]1[C@@H](O)[C@@H](O[C@H]2O[C@H](CO)[C@@H](O)[C@H](O)[C@H]2O)O[C@H](CO)[C@H]1O", "note": "[3-azido-3-deoxy-trehalose]", "values": [{"measurement": "ΔTm", "setting": "Mtr LpqY [1]", "result": "6.7 ± 0.2"}, {"measurement": "Kd", "setting": "Mtr LpqY [2]; read-out: Kd", "result": "475 ± 17.2", "unit": "µM"}, {"measurement": "Import into the cytosol of mycobacteria", "setting": "mycobacteria", "result": "is not"}]}, {"molecule": "O=P(O)(O)OC[C@H]1O[C@H](O[C@H]2O[C@H](CO)[C@@H](O)[C@H](O)[C@H]2O)[C@H](O)[C@@H](O)[C@@H]1O", "note": "[Trehalose-6-phosphate]", "values": [{"measurement": "ΔTm", "setting": "Mtr LpqY [1]", "result": "3.7 ± 0.2"}]}, {"molecule": "OC[C@H]1O[C@H](O[C@H]2O[C@H](CO)[C@@H](O)[C@H](O)[C@H]2O)[C@H](O)[C@@H](O)[C@@H]1O", "note": "[Trehalose, α-D-glucopyranosyl-α-D-glucopyranoside]", "values": [{"measurement": "Binding by STD NMR", "setting": "Mtr LpqY [3]", "result": "Binding was confirmed"}]}, {"molecule": "C[N+](C)(C)CCOP(=O)([O-])OC[C@H](O)CO", "note": "[glycerophosphocholine]", "values": [{"measurement": "Recognition in the thermal shift screen (in words)", "setting": "Mtr LpqY [1]", "result": "did not observe binding"}]}, {"molecule": "OC[C@H]1O[C@H](O[C@H]2C(O)O[C@H](CO)[C@@H](O)[C@@H]2O)[C@H](O)[C@@H](O)[C@@H]1O", "note": "(stereo partly shown) [Kojibiose]", "values": [{"measurement": "Recognition in the thermal shift screen (in words)", "setting": "Mtr LpqY [1]", "result": "reduced ΔTm shifts"}, {"measurement": "ΔTm", "setting": "Mtr LpqY [1]", "result": "7.9 ± 0.2"}, {"measurement": "Fold reduction in binding affinity (increase in Kd) compared with trehalose", "setting": "Mtr LpqY [2]", "result": "~30", "unit": "fold"}, {"measurement": "Kd", "setting": "Mtr LpqY [2]; read-out: Kd", "result": "2350 ± 123", "unit": "µM"}]}, {"molecule": "OC[C@H]1O[C@H](OC[C@H]2OC(O)[C@H](O)[C@@H](O)[C@@H]2O)[C@H](O)[C@@H](O)[C@@H]1O", "note": "(stereo partly shown) [Isomaltose]", "values": [{"measurement": "Recognition in the thermal shift screen (in words)", "setting": "Mtr LpqY [1]", "result": "reduced ΔTm shifts"}, {"measurement": "ΔTm", "setting": "Mtr LpqY [1]", "result": "4.1 ± 0.2"}]}, {"molecule": "OC[C@H]1O[C@H](O[C@H]2[C@H](O)[C@@H](CO)OC(O)[C@@H]2O)[C@H](O)[C@@H](O)[C@@H]1O", "note": "(stereo partly shown) [Nigerose]", "values": [{"measurement": "Recognition in the thermal shift screen (in words)", "setting": "Mtr LpqY [1]", "result": "reduced ΔTm shifts"}, {"measurement": "ΔTm", "setting": "Mtr LpqY [1]", "result": "5.1 ± 0.1"}]}, {"molecule": "[N-]=[N+]=NC[C@H]1O[C@H](O[C@H]2O[C@H](CO)[C@@H](O)[C@H](O)[C@H]2O)[C@H](O)[C@@H](O)[C@@H]1O", "note": "[6-azido-6-deoxy-trehalose, 6-azido-6-deoxy-α,α′-trehalose]", "values": [{"measurement": "Kd", "setting": "Mtr LpqY [2]; Kd", "result": "443 ± 5.3", "unit": "µM"}, {"measurement": "Binding by STD NMR", "setting": "Mtr LpqY [3]", "result": "Binding was confirmed"}, {"measurement": "Import into the cytosol of mycobacteria", "setting": "mycobacteria", "result": "imported and found in the cytosol"}]}, {"molecule": "OCC1O[C@H](O[C@H]2OC(CO)[C@H](O)[C@H](O)C2O)C(O)[C@@H](O)[C@H]1O", "note": "(stereo partly drawn) [Galactotrehalose, α-D-galactopyranosyl-(1→1)-α-D-glucopyranoside]", "values": [{"measurement": "ΔTm", "setting": "Mtr LpqY [1]", "result": "6.1 ± 0.6"}]}, {"molecule": "[N-]=[N+]=N[C@H]1[C@H](O)[C@@H](O)[C@@H](O[C@H]2O[C@H](CO)[C@@H](O)[C@H](O)[C@H]2O)O[C@@H]1CO", "note": "[4-azido-4-deoxy-trehalose, 4-azido-4-deoxy-α,α′-trehalose]", "values": [{"measurement": "Recognition in the thermal shift screen (in words)", "setting": "Mtr LpqY [1]", "result": "comparable to trehalose"}, {"measurement": "ΔTm", "setting": "Mtr LpqY [1]", "result": "10.2 ± 0.1"}, {"measurement": "Kd", "setting": "Mtr LpqY [2]; read-out: Kd", "result": "247 ± 7.1", "unit": "µM"}, {"measurement": "Import into the cytosol of mycobacteria", "setting": "mycobacteria", "result": "imported and found in the cytosol"}]}, {"molecule": "OC[C@H]1O[C@H](O[C@H]2[C@H](O)[C@@H](O)C(O)O[C@@H]2CO)[C@H](O)[C@@H](O)[C@@H]1O", "note": "(mixture of isomers) [maltose]", "values": [{"measurement": "Recognition in the thermal shift screen (in words)", "setting": "Mtr LpqY [1]", "result": "reduced ΔTm shifts; also recorded: inability"}]}, {"molecule": "NC[C@H]1O[C@H](O[C@H]2O[C@H](CO)[C@@H](O)[C@H](O)[C@H]2O)[C@H](O)[C@@H](O)[C@@H]1O", "note": "[6-amino-6-deoxy-trehalose, 6-amino-6-deoxy-α,α′-trehalose]", "values": [{"measurement": "ΔTm", "setting": "Mtr LpqY [1]", "result": "7.0 ± 0.1"}]}]}
